{"source": "PubChem BioAssay AID602264", "about": "(The Scripps Research Institute Molecular Screening Center, 2012)", "note": "The source made the active and inactive calls. No rule for the calls is given here.", "data": [{"molecular_target": "Mu-type opioid receptor (Homo sapiens) + Delta-type opioid receptor (Homo sapiens) (UniProt P35372+P41143)", "sequence (P35372 whole entry, looked up)": "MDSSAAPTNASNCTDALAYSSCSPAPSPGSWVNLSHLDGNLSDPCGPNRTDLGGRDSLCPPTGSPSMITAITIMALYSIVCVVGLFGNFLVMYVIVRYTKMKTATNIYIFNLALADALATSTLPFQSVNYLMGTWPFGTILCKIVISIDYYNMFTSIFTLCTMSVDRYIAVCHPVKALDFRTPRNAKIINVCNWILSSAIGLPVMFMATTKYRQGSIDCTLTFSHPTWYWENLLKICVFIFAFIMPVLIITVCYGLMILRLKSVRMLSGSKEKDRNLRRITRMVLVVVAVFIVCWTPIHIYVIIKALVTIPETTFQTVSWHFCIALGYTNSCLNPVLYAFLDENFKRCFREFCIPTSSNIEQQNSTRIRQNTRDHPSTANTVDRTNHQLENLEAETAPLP", "sequence (P41143 whole entry, looked up)": "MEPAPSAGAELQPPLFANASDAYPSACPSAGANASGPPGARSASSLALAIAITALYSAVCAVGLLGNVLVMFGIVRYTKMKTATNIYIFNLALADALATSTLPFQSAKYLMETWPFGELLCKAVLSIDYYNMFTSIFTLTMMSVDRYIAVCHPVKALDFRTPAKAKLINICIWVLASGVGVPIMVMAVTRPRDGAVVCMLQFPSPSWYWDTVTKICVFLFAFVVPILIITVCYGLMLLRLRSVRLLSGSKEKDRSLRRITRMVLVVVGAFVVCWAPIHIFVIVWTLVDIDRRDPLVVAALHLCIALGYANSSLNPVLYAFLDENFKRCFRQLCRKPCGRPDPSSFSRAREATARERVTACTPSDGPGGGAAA", "test": "agonists of MOR-DOR heterodimerization, dose response, counter-screen for MC4R biased agonist project, cell-based, luminescence (AID 602264)", "conditions": "cell-based OPRM1-OPRD1 heterodimerization", "values": [{"smiles": "CCCCCCCCCCOC(=O)Cn1c(COc2ccc(OC)cc2)[n+](C)c2ccccc21", "EC50": "> 92.5 µM (inactive)"}, {"smiles": "O=C(NC(c1ccccc1)c1ccsc1)C1CCN(CCOc2ccc(Cl)cc2Cl)CC1", "note": "(centres undefined)", "EC50": "inactive"}, {"smiles": "COc1ccc(-c2cc(NC(C)=O)c3ncc(-c4cccc(C(C)=O)c4)n3c2)cc1OC", "EC50": "> 64.6 µM (inactive)"}, {"smiles": "Cc1cc(C)c(CN2CCN(CCCn3cnc(C(=O)Nc4ccc(C)c(C)c4)n3)CC2)c(C)c1", "EC50": "> 92.5 µM (inactive)"}, {"smiles": "CC(=O)c1cccc(-c2cnc3c(NC=O)cc(-c4ccccc4F)cn23)c1", "EC50": "> 64.6 µM (inactive)"}, {"smiles": "COc1ccccc1-c1cc(NC=O)c2ncc(-c3ccc(F)cc3)n2c1", "EC50": "> 92.4 µM (inactive)"}, {"smiles": "CC(O)CC(=O)OC[C@]12CC[C@H]3[C@@](C)(CC[C@H]4C(C)(C)CCC[C@]34C)[C@@H]1CC(C1=CC(=O)OC1O)O2", "note": "(some centres undefined)", "EC50": "> 64.6 µM (inactive)"}, {"smiles": "COc1ccc(-c2cc(NC(C)=O)c3ncc(-c4ccc(F)cc4)n3c2)cc1OC", "EC50": "> 64.6 µM (inactive)"}, {"smiles": "Cc1ccc(C(=O)Cn2c(C(=O)/C=C/c3ccccc3)nc3ccccc32)cc1", "EC50": "> 64.6 µM (inactive)"}]}]}
